Key:
[1] = target: T1, Fatty-acid amide hydrolase 1 (Homo sapiens, UniProt O00519); assay: Inhibition of fatty acid amide hydrolase; range =. 23-3 uM
T1 sequence (O00519 whole entry): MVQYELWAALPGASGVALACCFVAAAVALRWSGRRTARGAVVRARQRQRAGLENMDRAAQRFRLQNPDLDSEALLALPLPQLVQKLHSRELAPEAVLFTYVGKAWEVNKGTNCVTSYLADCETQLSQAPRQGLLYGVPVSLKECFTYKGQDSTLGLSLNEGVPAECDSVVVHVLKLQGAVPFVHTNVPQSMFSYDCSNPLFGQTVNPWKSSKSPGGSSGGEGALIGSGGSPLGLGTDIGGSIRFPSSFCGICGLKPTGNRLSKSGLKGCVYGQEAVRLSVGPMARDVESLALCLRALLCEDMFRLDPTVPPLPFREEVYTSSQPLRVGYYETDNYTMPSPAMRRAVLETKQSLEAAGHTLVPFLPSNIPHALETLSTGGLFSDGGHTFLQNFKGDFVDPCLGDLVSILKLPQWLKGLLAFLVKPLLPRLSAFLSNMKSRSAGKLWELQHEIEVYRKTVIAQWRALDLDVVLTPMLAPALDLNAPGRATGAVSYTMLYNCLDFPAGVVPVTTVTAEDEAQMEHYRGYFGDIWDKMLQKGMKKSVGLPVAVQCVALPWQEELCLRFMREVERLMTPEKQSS

Monoglyceride lipase = target: T2, Monoglyceride lipase (Homo sapiens, UniProt Q99685); assay: Inhibitory concentration against monoacylglycerol lipase
T2 sequence (Q99685 whole entry): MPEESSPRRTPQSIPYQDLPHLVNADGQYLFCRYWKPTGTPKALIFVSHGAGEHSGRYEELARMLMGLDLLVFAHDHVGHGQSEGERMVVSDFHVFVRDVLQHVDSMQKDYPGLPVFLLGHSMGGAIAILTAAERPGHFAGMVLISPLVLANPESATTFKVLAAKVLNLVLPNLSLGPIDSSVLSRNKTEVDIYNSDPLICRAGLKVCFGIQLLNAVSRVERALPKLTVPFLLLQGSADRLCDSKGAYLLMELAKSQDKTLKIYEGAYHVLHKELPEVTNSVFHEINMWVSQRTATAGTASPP

[2] = target: T1, Fatty-acid amide hydrolase 1; assay: Inhibitory concentration against fatty acid amide hydrolase
[3] = Binding affinity for cannabinoid receptor 2
Cannabinoid receptor 1 [4] = target: T3, Cannabinoid receptor 1 (Rattus norvegicus, UniProt P20272); assay: (§1) Binding affinity for cannabinoid receptor 1
[5] = target: T1, Fatty-acid amide hydrolase 1; assay: Binding affinity for fatty acid amide hydrolase
[6] = target: T4, N-acylethanolamine-hydrolyzing acid amidase (Homo sapiens) (UniProt Q02083); assay: Percent inhibition aganist N-palmitoylethanolamine acid amidase at 10 uM
T4 sequence (whole entry): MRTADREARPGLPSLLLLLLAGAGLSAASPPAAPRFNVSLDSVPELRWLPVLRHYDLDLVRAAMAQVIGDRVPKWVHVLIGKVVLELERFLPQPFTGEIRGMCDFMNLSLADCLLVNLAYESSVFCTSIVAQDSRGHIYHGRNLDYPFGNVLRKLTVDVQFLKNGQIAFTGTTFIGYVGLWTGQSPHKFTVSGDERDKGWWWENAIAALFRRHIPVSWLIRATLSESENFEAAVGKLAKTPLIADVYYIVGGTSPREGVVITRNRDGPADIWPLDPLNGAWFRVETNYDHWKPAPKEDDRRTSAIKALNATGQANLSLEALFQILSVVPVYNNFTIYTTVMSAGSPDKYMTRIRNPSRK

[7] = target: T5, N-acylethanolamine-hydrolyzing acid amidase (Homo sapiens, UniProt Q02083); assay: Inhibitory concentration against N-palmitoylethanolamine acid amidase
T5 sequence (Q02083 whole entry): T4 sequence (whole entry)

Cannabinoid receptor = Cannabinoid receptor (Homo sapiens, UniProt P34972+P21554); assay: Binding affinity for Cannabinoid receptor; assay type: protein assay
[8] = target: T6, Fatty-acid amide hydrolase 1 (Mus musculus) (UniProt O08914); assay: Inhibitory potency against fatty acid amide hydrolase activity in mouse brain microsomes in presence of 58 uM anandamide at 160 uM; assay type: functional; details: Microsome
T6 sequence (whole entry): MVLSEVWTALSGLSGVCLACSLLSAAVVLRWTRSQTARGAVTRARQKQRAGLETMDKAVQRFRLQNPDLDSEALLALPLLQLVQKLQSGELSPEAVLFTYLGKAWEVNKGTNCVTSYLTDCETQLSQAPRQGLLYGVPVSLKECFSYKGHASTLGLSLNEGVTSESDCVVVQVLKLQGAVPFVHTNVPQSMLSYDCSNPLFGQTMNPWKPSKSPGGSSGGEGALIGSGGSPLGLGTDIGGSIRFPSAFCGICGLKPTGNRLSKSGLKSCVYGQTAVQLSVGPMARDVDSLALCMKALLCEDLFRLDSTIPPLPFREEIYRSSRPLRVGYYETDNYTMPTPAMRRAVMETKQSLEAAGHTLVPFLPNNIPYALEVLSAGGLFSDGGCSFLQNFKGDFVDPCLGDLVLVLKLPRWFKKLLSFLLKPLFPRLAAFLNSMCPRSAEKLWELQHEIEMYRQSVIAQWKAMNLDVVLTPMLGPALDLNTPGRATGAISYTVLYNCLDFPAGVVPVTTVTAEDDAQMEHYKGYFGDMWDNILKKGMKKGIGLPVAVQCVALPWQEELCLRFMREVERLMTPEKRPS

[9] = target: T1, Fatty-acid amide hydrolase 1; assay: Irreversible inhibition of fatty acid amide hydrolase
[10] = target: T1, Fatty-acid amide hydrolase 1; assay: Apparent binding affinity for fatty acid amide hydrolase
Homo sapiens = organism: Homo sapiens; assay: Concentration required to inhibit anandamide uptake into human monocytes; assay type: functional
Mus musculus = organism: Mus musculus; assay: Concentration required to inhibit anandamide uptake from the extracellular medium into cells; assay type: functional, cell-based
[11] = target: T1, Fatty-acid amide hydrolase 1; assay: Binding affinity for human fatty acid amide hydrolase
Cannabinoid receptor 1 [12] = target: T3, Cannabinoid receptor 1; assay: Inhibition of [3H]CP-55940 binding to rat cannabinoid receptor 1
Cannabinoid receptor 1 [13] = target: Cannabinoid receptor 1 (Homo sapiens, UniProt P21554); assay: as §1
[14] = target: T1, Fatty-acid amide hydrolase 1; assay: Irreversible inhibition of fatty acid amide hydrolase; range=. 5-6 nM
[15] = target: T1, Fatty-acid amide hydrolase 1; assay: Inhibition of fatty acid amide hydrolase; range = 4.1-7 uM

T3 sequence (P20272 whole entry): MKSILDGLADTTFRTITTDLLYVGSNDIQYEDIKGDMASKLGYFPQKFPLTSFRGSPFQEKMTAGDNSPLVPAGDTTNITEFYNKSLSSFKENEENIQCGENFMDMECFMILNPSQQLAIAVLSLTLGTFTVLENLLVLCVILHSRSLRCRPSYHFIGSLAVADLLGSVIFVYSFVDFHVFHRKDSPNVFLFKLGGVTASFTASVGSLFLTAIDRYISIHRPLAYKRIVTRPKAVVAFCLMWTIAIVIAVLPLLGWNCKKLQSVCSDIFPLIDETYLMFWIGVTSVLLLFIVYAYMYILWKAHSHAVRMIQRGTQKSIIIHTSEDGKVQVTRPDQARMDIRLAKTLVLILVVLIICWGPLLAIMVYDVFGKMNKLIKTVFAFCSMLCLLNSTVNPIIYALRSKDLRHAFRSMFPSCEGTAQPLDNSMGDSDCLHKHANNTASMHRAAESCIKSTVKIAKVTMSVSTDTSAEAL
Chain of Cannabinoid receptor 1 (Homo sapiens, UniProt P21554) (P21554 whole entry): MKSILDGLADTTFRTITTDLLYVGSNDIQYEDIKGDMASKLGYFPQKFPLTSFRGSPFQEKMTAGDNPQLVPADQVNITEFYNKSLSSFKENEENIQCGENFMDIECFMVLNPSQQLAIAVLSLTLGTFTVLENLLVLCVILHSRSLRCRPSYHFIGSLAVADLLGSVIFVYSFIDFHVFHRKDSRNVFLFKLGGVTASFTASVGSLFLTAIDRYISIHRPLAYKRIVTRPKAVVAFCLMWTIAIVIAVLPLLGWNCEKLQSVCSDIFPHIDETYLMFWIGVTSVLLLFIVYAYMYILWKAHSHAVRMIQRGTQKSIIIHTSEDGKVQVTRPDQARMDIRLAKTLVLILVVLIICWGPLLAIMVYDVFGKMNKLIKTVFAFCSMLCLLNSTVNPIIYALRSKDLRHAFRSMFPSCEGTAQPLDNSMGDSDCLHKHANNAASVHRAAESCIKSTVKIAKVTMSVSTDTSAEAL

Q: For `CCCCC/C=C\C/C=C\C/C=C\C/C=C\CCCC(=O)C(F)(F)F` [ARACHIDONYL TRIFLUOROMETHYLKETONE], which IC50 [1] is on record?
A: 3000 nM

Q: What does the source list for `CC(C)(/C=C\C/C=C\C/C=C\C/C=C\CCCC(=O)OCC(O)CO)CCCCC#N` (stereo not drawn)?
A: IC50 (Monoglyceride lipase): ~11000 nM; IC50 [2]: ~11000 nM

Q: For `CCCCC/C=C\C/C=C\C/C=C\C/C=C\CCCC(=O)NCCc1ccc(O)c(O)c1` [ARACHIDONOYL DOPAMINE], which Ki [3] is on record?
A: 12 nM

Q: What about the Ki (Cannabinoid receptor 1 [4]) of the same compound?
A: 250 nM

Q: With `CCCCCCCC/C=C\CCCCCCCC(=O)c1nc2ncccc2o1` as the compound, how does the Ki [5] read?
A: 2.3 nM

Q: For `CCCCC/C=C\C/C=C\C/C=C\C/C=C\CCCC(=O)c1nc2ncccc2o1`, which Ki [5] is on record?
A: 1 nM

Q: Which results are given for `CCCCCCCCCCCCCCCNC(=O)C1CCCCC1` [CYCLOHEXANECARBOXYLIC ACID PENTADECYLAMIDE]?
A: inhibition [6]: 66%; IC50 [7]: 4500 nM

Q: For `CCCCCCCC/C=C\CCCCCCC(C)C(=O)c1nc2ncccc2o1` (stereo not drawn), which Ki [5] is on record?
A: 9.1 nM

Q: Which Ki (Cannabinoid receptor) does the source give for `CCCCCC[C@@H](C)OC(=O)CC(=O)CBr` here?
A: 800 nM

Q: Which inhibition [6] does the source give for `CCCCCCCCCCCCCCCNC(=O)c1ccccc1` here?
A: 61%

Q: With `C=C(C)[C@@H]1CCC(C)=C[C@H]1c1c(O)cc(CCCCC)cc1O` as the compound, how does the inhibition [8] read?
A: 66%

Q: For `CCCCC/C=C\C/C=C\C/C=C\C/C=C\CCCCS(=O)(=O)F`, which IC50 [9] is on record?
A: 0.1 nM

Q: For `CCCCCCCc1ccc(CCCCCCC(=O)C(F)(F)F)cc1`, which Ki [10] is on record?
A: 96 nM

Q: For `CCCCCCC(C)(C)c1ccc([C@@H]2C[C@H](O)CC[C@H]2CCCO)c(O)c1` [CP-55940], which Ki [3] is on record?
A: 2.6 nM

Q: With `CCCCC/C=C\C/C=C\C/C=C\C/C=C\CCCCOC(CO)CO` as the compound, how does the Ki (Cannabinoid receptor 1 [4]) read?
A: 21 nM

Q: For `C=CCOc1ccc(CN(C/C=C/c2ccccc2)CCCC)cc1`, which IC50 (Homo sapiens) is on record?
A: 90 nM

Q: With `CCCCCCCC/C=C\CCCCCCCC(=O)C(F)(F)F` as the compound, how does the Ki [5] read?
A: 1.2 nM

Q: Which inhibition [8] does the source give for `CCCCCc1cc(O)c2c(c1)OC(C)(C)c1ccc(C)cc1-2` here?
A: 46%

Q: For `CCCCC/C=C\C/C=C\C/C=C\C/C=C\CCCC(=O)Nc1ccc(O)cc1`, which IC50 (Mus musculus) is on record?
A: ~10000 nM

Q: With `O=C(CCCCCc1ccccc1)c1nc2ncccc2o1` as the compound, how does the Ki [11] read?
A: 0.094 nM

Q: For `CCCCCCCCCCCCS(=O)(=O)F` [DODECANESULFONYL FLUORIDE], which IC50 [9] is on record?
A: 3 nM

Q: With `CCCCC/C=C\C/C=C\C/C=C\C/C=C\CCCC(=O)NCCO` [ANANDAMIDE] as the compound, how does the Ki [3] read?
A: 370 nM

Q: For `O=C1O/C(=C/Br)CCC1c1cccc2ccccc12` (stereo not drawn) [BROMOENOL LACTONE], which IC50 [9] is on record?
A: 800 nM

Q: Which inhibition [8] does the source give for `CCCCCc1cc(O)c2c(c1)OC(C)(C)[C@@H]1CCC(C)=C[C@@H]21` [DRONABINOL] here?
A: 31%

Q: And the Ki [3]?
A: 20 nM

Q: What does the source list for `CCCCC/C=C\C/C=C\C/C=C\C/C=C\CCCC(=O)OCCN`?
A: Ki [3]: 1400 nM; Ki (Cannabinoid receptor 1 [4]): 1900 nM

Q: For `CCCCCCCC/C=C\CCCCCCCC(N)=O` [OLEAMIDE], which Ki (Cannabinoid receptor 1 [12]) is on record?
A: 1140 nM

Q: Which IC50 [7] does the source give for `CCCCCCCCCCCCCCCC(=O)OC1CCCCC1` [CYCLOHEXYL PALMITATE] here?
A: 19000 nM

Q: With `CCCCCCCCCCCCCCCC(=O)NCC(=O)OC` as the compound, how does the IC50 [2] read?
A: 10000 nM

Q: Which IC50 [9] does the source give for `O=S(=O)(F)Cc1ccccc1` [PHENYLMETHYLSULFONYLFLUORIDE] here?
A: 13000 nM

Q: Which IC50 [7] does the source give for `CCCCCCCCCCCCCCCCOC(=O)CC` [HEXADECYLPROPIONATE] here?
A: 32000 nM

Q: Which IC50 (Monoglyceride lipase) does the source give for `CCCCC/C=C\C/C=C\C/C=C\C/C=C\CCCC(=O)OCCO` here?
A: 25000 nM

Q: And the IC50 [2]?
A: > 25000 nM

Q: For `CCCCCCCCCCC[C@@H](C[C@@H]1OC(=O)[C@H]1CCCCCC)OC(=O)[C@H](CC(C)C)NC=O` [ORLISTAT], which IC50 (Cannabinoid receptor 1 [13]) is on record?
A: ≤ 100 nM

Q: For `CCCCC/C=C\C/C=C\C/C=C\C/C=C\CCC(C)C(=O)OCC(O)CO` (stereo not drawn), which IC50 (Monoglyceride lipase) is on record?
A: ~11000 nM

Q: What about the IC50 [2] of the same compound?
A: ~11000 nM

Q: Which IC50 [14] does the source give for `CCCCC/C=C\C/C=C\C/C=C\C/C=C\CCCC(=O)[CH-][N+]#N` here?
A: 6 nM

Q: For `O=C(CCCCCCc1ccccc1)c1nc2ncccc2o1`, which IC50 [2] is on record?
A: 2.1 nM

Q: With `CCCCC/C=C\C/C=C\C/C=C\C/C=C\CCCC(=O)NCCc1c[nH]c2ccc(O)cc12` as the compound, how does the IC50 [2] read?
A: 12000 nM

Q: With `O=C(CCCCCCCc1ccccc1)C(F)(F)F` as the compound, how does the Ki [5] read?
A: 25 nM

Q: For `CC(C)c1cccc(C(C)C)c1O` [PROPOFOL], which IC50 [2] is on record?
A: 52000 nM

Q: For `CCCCC/C=C\C/C=C\CC/C=C\CCCC(=O)NCCc1ccc(O)c(O)c1`, which IC50 [2] is on record?
A: 19000 nM

Q: For `CCCCCCCCCCCCCCCC(=O)NC(C)C` [HEXADECANOIC ACID ISOPROPYLAMIDE], which IC50 [2] is on record?
A: 13 nM

Q: What does the source list for `CC(C)(/C=C\C/C=C\C/C=C\C/C=C\CCCC(=O)OCC(O)CO)CCCCO` (stereo not drawn)?
A: IC50 (Monoglyceride lipase): ~11000 nM; IC50 [2]: ~11000 nM

Q: For `CCCCC/C=C\C/C=C\C/C=C\C/C=C\CCCC(=O)NCC(=O)O` [ARACHIDONOYL GLYCINE], which IC50 [15] is on record?
A: 7000 nM

Q: Which Ki [3] does the source give for `Cc1c(C(=O)c2cccc3ccccc23)c2cccc3c2n1[C@H](CN1CCOCC1)CO3` [WIN-552122] here?
A: 1.8 nM

Q: With `CCCCCCCCCCCCCCCNC(=O)COC(C)=O` [ACETIC ACID PENTADECYLCARBAMOYLMETHYL ESTER] as the compound, how does the IC50 [2] read?
A: 8000 nM

Q: For `CCCCCCCCCCCCCCCNC(=O)CCO`, which IC50 [7] is on record?
A: 54000 nM

Q: For `CCCCCCCCCCCCCCCCCCS(=O)(=O)F` [OCTADECANESULFONYL FLUORIDE], which IC50 [9] is on record?
A: 4 nM
